Reference: the supplement of paper PMC8149375
Values joined by “and” are separate entries in the source; they are usually repeats but may differ in a detail not shown here. Equal values may be shown once.

Legend:
Settings in all cases: treatment: drug alone; 5 days
[1] = system: 769-P; experiment: GI50, drug alone; higher = less potent
Description: (§1)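 Primary HTS: 8 RCC cell lines treated with 8 doses (up to 10 uM) of each library drug alone for 5 days; viability read by CellTiter-Glo and normalised to DMSO. GI50 was fitted with XLfit (4-parameter), AUC is the area under the dose-response curve, and minimum viability is the lowest fraction of DMSO viability across doses.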

[2] = system: 786-O; experiment: GI50, drug alone; higher = less potent
Description: as §1

[3] = system: A498; experiment: GI50, drug alone; higher = less potent
Description: as §1

[4] = system: ACHN; experiment: GI50, drug alone; higher = less potent
Description: as §1

[5] = system: CAKI-1; experiment: GI50, drug alone; higher = less potent
Description: as §1

[6] = system: SN12C; experiment: GI50, drug alone; higher = less potent
Description: as §1

[7] = system: TK-10; experiment: GI50, drug alone; higher = less potent
Description: as §1

[8] = system: UO-31; experiment: GI50, drug alone; higher = less potent
Description: as §1

[9] = system: 769-P; experiment: minimum viability across doses, drug alone, relative to DMSO (fraction); higher = less growth inhibition
Description: as §1

[10] = system: 786-O; experiment: as above
Description: as §1

[11] = system: A498; experiment: as above
Description: as §1

[12] = system: ACHN; experiment: as above
Description: as §1

[13] = system: TK-10; experiment: as above
Description: as §1

[14] = system: UO-31; experiment: as above
Description: as §1

[15] = system: 769-P; experiment: AUC of dose-response viability curve, drug alone (arbitrary (AUC of normalised viability)); higher = less growth inhibition
Description: as §1

[16] = system: 786-O; experiment: as above
Description: as §1

[17] = system: A498; experiment: as above
Description: as §1

[18] = system: ACHN; experiment: as above
Description: as §1

[19] = system: CAKI-1; experiment: as above
Description: as §1

[20] = system: SN12C; experiment: as above
Description: as §1

[21] = system: TK-10; experiment: as above
Description: as §1

[22] = system: UO-31; experiment: as above
Description: as §1

[23] = system: CAKI-1; experiment: minimum viability across doses, drug alone, relative to DMSO (fraction); higher = less growth inhibition
Description: as §1

[24] = system: SN12C; experiment: as above
Description: as §1

Structure (SMILES) | GI50, drug alone [1] | GI50, drug alone [2] | GI50, drug alone [3] | GI50, drug alone [4] | GI50, drug alone [5] | GI50, drug alone [6] | GI50, drug alone [7] | GI50, drug alone [8] | minimum viability across doses [9] | minimum viability across doses [10] | minimum viability across doses [11] | minimum viability across doses [12] | minimum viability across doses [13] | minimum viability across doses [14] | AUC of dose-response viability curve [15] | AUC of dose-response viability curve [16] | AUC of dose-response viability curve [17] | AUC of dose-response viability curve [18] | AUC of dose-response viability curve [19] | AUC of dose-response viability curve [20] | AUC of dose-response viability curve [21] | AUC of dose-response viability curve [22] | minimum viability across doses [23] | minimum viability across doses [24]
Cc1cnc(Nc2ccc(N3CCN(C)CC3)cc2)nc1Nc1cccc(S(=O)(=O)NC(C)(C)C)c1 | 3640 nM and 1860 nM | 1630 nM and 1100 nM | 8980 nM and 9200 nM | 394 nM and 247 nM | 523 nM and 494 nM | 2190 nM and 1470 nM | 596 nM and 364 nM | 3060 nM and 2230 nM | 0.0716 and 0.0287 | 0.011 and 0.00951 | 0.19 and 0.161 | 0.00241 and 0.0043 | 0.00169 and 0.00288 | 0.0126 and 0.00902 | 2.9 and 2.62 | 2.78 and 2.6 | 3.84 and 4.19 | 2.1 and 1.82 | 2.2 and 2.24 | 2.78 and 2.61 | 2.15 and 1.95 | 3.84 and 3.52 |  | 
CN(C)Cc1cccc(N/C(=C2\C(=O)Nc3cc(C(=O)N(C)C)ccc32)c2ccccc2)c1 | > 10000 nM | > 10000 nM | > 10000 nM | 2670 nM | 4000 nM | 8690 nM | 9600 nM | 9910 nM | 0.867 | 0.524 | 1.14 | 0.127 | 0.481 | 0.605 | 3.43 | 2.81 | 4.62 | 2.8 | 3.08 | 3.05 | 2.94 | 4.64 | 0.12 | 0.382
O=C(NC[C@H](O)CO)c1ccncc1Nc1ccc(I)cc1F | 1140 nM | 247 nM | > 10000 nM | 560 nM | 654 nM | 5970 nM | 715 nM | 9220 nM | 0.268 | 0.292 | 0.687 | 0.273 | 0.282 | 0.367 | 2.44 | 1.84 | 4.02 | 2.11 | 2.27 | 2.62 | 2.12 | 4.06 | 0.203 | 0.409
Cc1n[nH]c2ccc(-c3cncc(OC[C@@H](N)Cc4ccccc4)c3)cc12 | 2010 nM | 879 nM | 1160 nM | 667 nM | 1220 nM | 1430 nM | 1390 nM | 887 nM | 0.0141 | 0.00649 | 0.0113 | 0.00528 | 0.141 | 0.00834 | 2.74 | 2.19 | 2.46 | 2.28 | 2.6 | 2.55 | 2.54 | 2.35 | 0.073 | 0.00861
Cc1ccc(C(=O)Nc2ccc(CN3CCN(C)CC3)c(C(F)(F)F)c2)cc1C#Cc1cnc2cccnn12 | 2210 nM | 936 nM | 2090 nM | 327 nM | 486 nM | 942 nM | 531 nM | 1250 nM |  |  |  |  |  |  |  |  |  |  |  |  |  |  |  | 
